Results taken from ChEMBL document CHEMBL1926590, “Discovery of a novel class of non-ATP site DFG-out state p38 inhibitors utilizing computationally assisted virtual fragment-based drug design (vFBDD)” (Bioorg Med Chem Lett, 2011).

What was measured:
[1] = Half life in human hepatocytes; assay type: ADME, cell-based, Liver, Hepatocyte
[2] = Oral bioavailability in Sprague-Dawley rat at 4 mg/kg; assay type: ADME, organism-based; settings: in vivo
[3] = Apparent permeability across basolateral to apical side in human Caco2 cells by UPLC analysis; assay type: ADME, cell-based; settings: Caco-2
[4] = Apparent permeability across apical to basolateral side in human Caco2 cells by UPLC analysis; assay type: ADME, cell-based; settings: Caco-2

half-life [1]: 5.67 h
bioavailability [2]: 33%
Papp B→A [3]: 5.3 ×10⁻⁶ cm/s
Papp A→B [4]: 0.39 ×10⁻⁶ cm/s
SMILES: CN(C)CCN1CCN(C(=O)c2cc(C(C)(C)C)sc2NC(=O)Nc2cccc(Cl)c2Cl)CCC1=O
